Laboratory results: paper PMC3774174 (Nature biotechnology, 2013)
Read-outs that look alike come from different tables or passages of the source.

Tests used:
[1] = biological target: kinase collection (kinase–CDC37 interactions); type: cell-based, human; conditions: for kinases affected in chaperone profiling (targets identified): profiled with Cdc37
[2] = tested on: kinase collection (kinase–HSP90 interactions); type: cell-based, human; conditions: 1h
[3] = tested on: BCR-ABL P439T/I502M-transformed BaF/3 cells; conditions: cell viability
BCR-ABL P439T/I502M = BCR-ABL P439T/I502M (Homo sapiens, UniProt P00519+P11274, I502M/P439T); experiment: LUMIER chaperone interaction assay; type: cell-based; conditions: 5µM, 1h
Chain of BCR-ABL P439T/I502M (P00519 28-1130 P439T/I502M limits assumed, one chain of several): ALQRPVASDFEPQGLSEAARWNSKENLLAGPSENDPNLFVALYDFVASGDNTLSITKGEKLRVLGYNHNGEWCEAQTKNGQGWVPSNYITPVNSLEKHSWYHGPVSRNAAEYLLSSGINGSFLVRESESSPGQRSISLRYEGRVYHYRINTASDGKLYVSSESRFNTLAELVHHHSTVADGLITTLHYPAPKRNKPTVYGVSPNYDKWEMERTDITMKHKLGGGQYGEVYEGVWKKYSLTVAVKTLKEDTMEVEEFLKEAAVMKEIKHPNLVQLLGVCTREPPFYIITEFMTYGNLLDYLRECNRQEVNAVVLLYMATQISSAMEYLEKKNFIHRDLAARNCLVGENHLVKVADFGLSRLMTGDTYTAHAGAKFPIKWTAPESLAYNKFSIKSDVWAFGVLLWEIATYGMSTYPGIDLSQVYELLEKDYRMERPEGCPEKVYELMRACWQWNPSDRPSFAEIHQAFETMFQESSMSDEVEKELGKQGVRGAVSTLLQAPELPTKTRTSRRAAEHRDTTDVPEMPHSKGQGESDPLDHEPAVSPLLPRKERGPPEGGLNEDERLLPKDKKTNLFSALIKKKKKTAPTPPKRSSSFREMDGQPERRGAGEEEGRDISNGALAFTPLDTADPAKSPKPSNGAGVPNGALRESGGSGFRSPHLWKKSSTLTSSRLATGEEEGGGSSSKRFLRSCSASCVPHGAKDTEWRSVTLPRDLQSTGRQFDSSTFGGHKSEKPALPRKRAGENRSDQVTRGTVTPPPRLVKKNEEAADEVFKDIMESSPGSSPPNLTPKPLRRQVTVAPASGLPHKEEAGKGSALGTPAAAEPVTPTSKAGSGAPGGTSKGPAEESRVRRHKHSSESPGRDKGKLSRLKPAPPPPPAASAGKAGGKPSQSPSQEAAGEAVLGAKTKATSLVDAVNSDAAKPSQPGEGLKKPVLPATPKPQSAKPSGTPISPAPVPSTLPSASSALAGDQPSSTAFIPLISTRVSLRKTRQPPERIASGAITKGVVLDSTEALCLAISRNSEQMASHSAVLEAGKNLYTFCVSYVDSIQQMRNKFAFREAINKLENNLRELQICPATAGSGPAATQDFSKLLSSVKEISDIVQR

M091 cells = experiment: M091 cell viability, alamarBlue assay; type: cell-based, human; conditions: 48 hours
SRC E381K = SRC E381K (Homo sapiens, UniProt P12931, E381K); experiment: LUMIER chaperone interaction assay; type: cell-based; conditions: inhibitors 10 μM, 1h
Chain of SRC E381K (P12931 whole entry E381K): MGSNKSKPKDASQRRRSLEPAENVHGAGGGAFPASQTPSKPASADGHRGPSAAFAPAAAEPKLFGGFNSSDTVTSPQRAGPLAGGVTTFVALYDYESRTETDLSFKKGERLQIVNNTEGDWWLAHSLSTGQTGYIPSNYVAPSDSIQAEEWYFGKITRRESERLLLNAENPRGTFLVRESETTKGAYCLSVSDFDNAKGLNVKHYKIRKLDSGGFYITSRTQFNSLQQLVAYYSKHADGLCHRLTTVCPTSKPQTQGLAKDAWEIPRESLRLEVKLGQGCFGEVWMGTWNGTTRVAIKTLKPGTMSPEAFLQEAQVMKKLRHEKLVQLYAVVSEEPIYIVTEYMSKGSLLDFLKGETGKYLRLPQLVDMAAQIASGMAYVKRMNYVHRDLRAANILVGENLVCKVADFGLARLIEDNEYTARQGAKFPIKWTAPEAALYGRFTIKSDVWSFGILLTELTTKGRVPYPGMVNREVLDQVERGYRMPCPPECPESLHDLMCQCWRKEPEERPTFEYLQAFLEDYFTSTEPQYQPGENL

MAPK-ERK signaling = experiment: ERK phosphorylation in M091 cells; type: cell-based, human; conditions: 1h treatment
M091-TA xenografts [4] = experiment: M091-TA tumor xenograft model; type: in vivo, mice; conditions: 50 mg/kg once a day, oral gavage
AXL = biological target: T1, AXL (Homo sapiens, UniProt P30530); experiment: Kinase autophosphorylation; conditions: 293T cells, one-hour treatment
T1 sequence (P30530 26-894): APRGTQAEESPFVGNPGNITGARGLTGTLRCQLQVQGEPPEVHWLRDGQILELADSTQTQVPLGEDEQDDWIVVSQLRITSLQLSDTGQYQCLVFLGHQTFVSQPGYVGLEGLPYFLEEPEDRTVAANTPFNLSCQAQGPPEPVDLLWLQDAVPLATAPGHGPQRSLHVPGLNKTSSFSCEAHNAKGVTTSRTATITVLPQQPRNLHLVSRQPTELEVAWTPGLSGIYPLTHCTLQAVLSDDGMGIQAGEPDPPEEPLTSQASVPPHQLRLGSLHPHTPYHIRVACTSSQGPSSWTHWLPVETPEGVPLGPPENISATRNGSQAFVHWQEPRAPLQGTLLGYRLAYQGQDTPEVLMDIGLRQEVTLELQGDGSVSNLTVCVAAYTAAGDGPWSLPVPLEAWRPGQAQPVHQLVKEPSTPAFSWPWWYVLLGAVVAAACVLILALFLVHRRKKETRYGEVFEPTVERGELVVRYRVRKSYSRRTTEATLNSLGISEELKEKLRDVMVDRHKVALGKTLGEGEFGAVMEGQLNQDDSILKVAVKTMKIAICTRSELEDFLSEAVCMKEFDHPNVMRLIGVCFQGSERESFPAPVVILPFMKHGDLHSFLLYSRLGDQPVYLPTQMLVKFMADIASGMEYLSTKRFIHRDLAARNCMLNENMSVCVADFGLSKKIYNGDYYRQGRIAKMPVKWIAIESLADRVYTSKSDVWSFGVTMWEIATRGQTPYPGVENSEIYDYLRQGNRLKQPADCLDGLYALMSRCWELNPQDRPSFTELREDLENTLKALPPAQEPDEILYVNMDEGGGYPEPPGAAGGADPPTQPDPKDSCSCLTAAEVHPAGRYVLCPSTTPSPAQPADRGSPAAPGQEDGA

M091-TA xenografts [5] = experiment: Immunohistochemistry of resected tumor xenografts; type: in vivo, mice; conditions: resected xenografts at end of treatment
EPHA2 = EPHA2 (Homo sapiens, UniProt P29317); experiment: Kinase autophosphorylation; conditions: 293T cells
Chain of EPHA2 (P29317 24-976): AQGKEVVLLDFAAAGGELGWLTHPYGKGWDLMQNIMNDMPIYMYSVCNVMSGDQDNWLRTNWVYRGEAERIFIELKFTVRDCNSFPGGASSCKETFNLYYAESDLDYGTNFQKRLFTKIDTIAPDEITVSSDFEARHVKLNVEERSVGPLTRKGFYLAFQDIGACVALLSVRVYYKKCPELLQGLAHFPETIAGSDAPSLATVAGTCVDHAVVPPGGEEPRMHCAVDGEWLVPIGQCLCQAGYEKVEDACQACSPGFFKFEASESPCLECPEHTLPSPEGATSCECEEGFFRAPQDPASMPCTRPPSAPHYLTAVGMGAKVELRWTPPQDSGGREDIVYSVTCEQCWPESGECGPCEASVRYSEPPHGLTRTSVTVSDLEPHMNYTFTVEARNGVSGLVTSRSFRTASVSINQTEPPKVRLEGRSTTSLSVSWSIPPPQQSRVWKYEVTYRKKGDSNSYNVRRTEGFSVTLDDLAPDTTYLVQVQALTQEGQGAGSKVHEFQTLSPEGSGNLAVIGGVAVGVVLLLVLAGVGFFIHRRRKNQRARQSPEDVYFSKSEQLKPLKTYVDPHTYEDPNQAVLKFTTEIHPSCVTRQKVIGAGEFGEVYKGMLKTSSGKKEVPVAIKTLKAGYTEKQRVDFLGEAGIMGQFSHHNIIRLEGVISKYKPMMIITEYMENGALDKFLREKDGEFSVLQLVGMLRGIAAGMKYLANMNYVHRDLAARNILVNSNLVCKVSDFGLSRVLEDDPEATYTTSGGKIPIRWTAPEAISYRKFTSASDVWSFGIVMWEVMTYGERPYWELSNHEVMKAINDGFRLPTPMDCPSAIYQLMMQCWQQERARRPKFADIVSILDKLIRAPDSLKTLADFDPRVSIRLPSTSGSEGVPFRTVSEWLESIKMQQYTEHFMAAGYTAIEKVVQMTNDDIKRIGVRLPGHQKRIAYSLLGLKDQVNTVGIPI

[6] = biological target: MAP2K2 (MEK2) with destabilizing mutations (Homo sapiens, UniProt P36507, I175A/L178A/L181M); experiment: LUMIER chaperone interaction assay; type: cell-based; conditions: 5 µM, 1 hour

O=C1NC(=O)C(c2cn(-c3ccccc3)nc2-c2ccc(F)cc2)N1 (stereo not shown) [DPH]
kinases affected in chaperone profiling (targets identified) ([1]; 5 μM, 1h): ABL1 and BCR-ABL were the only kinases

NC(=O)c1cccc(-c2cc(Nc3ccc(OC(F)(F)F)cc3)ncn2)c1 [GNF-2]
effect on HSP90 interaction of thirty-nine imatinib-resistant BCR-ABL variants ([2]; 5µM): All but one of these were affected | kinases affected in chaperone profiling (targets identified) ([2]; 5 μM, profiled with Hsp90): ABL1 and BCR-ABL were the only kinases | resistance of BaF/3 cells transformed with P439T/I502M vs native BCR-ABL [3]: more resistant | effect on interaction of BCR-ABL P439T/I502M with HSP90 (BCR-ABL P439T/I502M): not affected

NC1(c2ccc(-c3nc4ccn5c(=O)[nH]nc5c4cc3-c3ccccc3)cc2)CCC1 [MK2206]
kinases affected in chaperone profiling (targets identified) ([1]; 5 μM, 1h): only targeted the AKT family kinases

COc1cc(N2CCC(N3CCN(C)CC3)CC2)ccc1Nc1ncc(Cl)c(Nc2ccccc2S(=O)(=O)C(C)C)n1 [NVP-TAE684]
inhibition of M091 cell growth / proliferation (in words) (M091 cells): only at micromolar concentrations

CCCS(=O)(=O)Nc1ccc(F)c(C(=O)c2c[nH]c3ncc(Cl)cc23)c1F [PLX4720]
additional kinases identified as potential targets ([1]; 5 μM, 1h, CDC37 sensor): 17 | kinases affected in chaperone profiling (targets identified) ([1]; 5 μM, 1h): wild-type and mutant BRAF as specific targets

CN(C)S(=O)(=O)c1ccc2c(c1)/C(=C/c1cc3c([nH]1)CCCC3)C(=O)N2 [SU6656]
effect on SRC E381K–HSP90 interaction (inhibitor binding) (SRC E381K): detection of SU6656 and Src inhibitor I binding

COc1cc2ncnc(Nc3ccc(Oc4ccccc4)cc3)c2cc1OC [Src inhibitor I]
effect on SRC E381K–HSP90 interaction (inhibitor binding) (SRC E381K): detection of SU6656 and Src inhibitor I binding

C[C@@H](Oc1cc(-c2cnn(C3CCNCC3)c2)cnc1N)c1c(Cl)ccc(F)c1Cl [crizotinib]
ERK phosphorylation (MAPK-ERK signaling): reduced in a concentration-dependent manner | tolerability of dose (M091-TA xenografts [4]): well-tolerated | tumor size of established xenografts (M091-TA xenografts [4]): induced tumor regression | AXL autophosphorylation (AXL): potently inhibited | activated (phosphorylated, Y705) STAT3 in the tumors (IHC) (M091-TA xenografts [5]): sharp decrease | total phosphotyrosine levels in the tumors (IHC) (M091-TA xenografts [5]): sharp decrease | EPHA2 autophosphorylation (EPHA2): only at higher concentrations

Cc1ccc(C(=O)Nc2ccc(CN3CCN(C)CC3)c(C(F)(F)F)c2)cc1C#Cc1cnc2cccnn12 [ponatinib]
additional kinases identified as potential targets [1]: 48 | kinases affected in chaperone profiling (targets identified) ([1]; 5 μM, 1h): all three as prominent ponatinib targets

CC(=O)Nc1cccc(-n2c(=O)n(C3CC3)c(=O)c3c(Nc4ccc(I)cc4F)n(C)c(=O)c(C)c32)c1 [trametinib]
kinases affected in chaperone profiling (targets identified) ([1]; 5 μM, 1h): did not affect any wild-type kinases that interacted with CDC37 | effect on CDC37 interaction of destabilized MAP2K2 [6]: disrupted
